Drawing on patent US6858621B2, “2-(quinolonyl)-fused heterocycles as androgen receptor modulators” (Ortho-McNeil Pharmaceutical, Inc., priority 2002, dated 2005), this text covers IC50 for two molecules.

This experiment concerns the target T1, androgen receptor LBD (Panvera) (Rattus norvegicus, UniProt P15207).
T1 construct: 5 pmol androgen receptor LBD (Panvera); purchased Panvera
T1 sequence (P15207 651-882 limits assumed): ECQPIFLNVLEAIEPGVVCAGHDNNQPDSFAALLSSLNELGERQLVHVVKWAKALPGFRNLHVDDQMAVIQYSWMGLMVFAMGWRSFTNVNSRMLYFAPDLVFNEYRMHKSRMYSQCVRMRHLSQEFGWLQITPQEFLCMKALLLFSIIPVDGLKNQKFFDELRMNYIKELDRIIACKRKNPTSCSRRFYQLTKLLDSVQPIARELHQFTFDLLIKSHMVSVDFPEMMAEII
The experiment in a line: Androgen Receptor Filtration Binding Assay (Panvera receptor). Particulars: Panvera receptor data; 0.5 nM [3H] R1881 tracer. Here is the method: In Vitro Assay—Androgen Receptor Filtration Binding Assay
The assay was run on a 96 well plate with each well filled with total reaction volume 150 μL, of a solution containing 5 pmol androgen receptor LBD (Panvera) or […] of freshly prepared rat cytosol, 0.5 nM [^3H] R1881 tracer (NEN), 1.5 μL (10 μM) test compound or vehicle (diluted in 30% DMSO, final concentration of DMSO 0.75%) and […] of TED buffer. (TED buffer contains 10 mM Tris.HCl pH 7.4, 1 mM sodium molybdate (60 mg/250 mL), 1.5 mM EDTA, 1 mM DTT and 10% (v/v) glycerol.)
On day one, the solution containing receptor, tracer and TED buffer was distributed onto a 96 well plate. Diluted test compound or control vehicle was then added to individual wells and the plate incubated ay 4° C. overnight.
On day two, to each well was then added 20 μL human γ-globulin (ICN 823102), prepared at 25 mg/ml in TE pH 8.0 and 55 μL 40% polyethylene glycol 8000 (J T Baker U222-08), prepared in TE pH 8.0. […] The plate wells were then counted on a TopCount (Packard).
Representative compounds of the present invention were tested for binding to the androgen receptor according to the procedure described above with results as listed in Table 3. % Inhibition values less that 0% indicate no binding at the […] level. The negative number(s) are a result of experimental error from the low number of counts detected.

On to `O=c1cc(C(F)(F)F)c2c3c(ccc2[nH]1)OC(F)(F)C(F)(F)O3` [compound 2], for which the concentration for half-maximal inhibition (IC50) worked out at 4.8 µM.

Turning to `O=c1cc(C(F)(F)F)c2c3c(ccc2[nH]1)OCCO3` [compound 1], the IC50 stood at 5.2 µM.
